The NIST ThermoML archive (doi:10.1016/j.fluid.2006.04.014)
Numbers after ± are expanded uncertainties.

Conditions: Liquid, Closed cell (Static) method

For `CCF` [fluoroethane], the “vapor or sublimation pressure” value (253.15 K) was 216.2 ± 2.2 kPa, the “vapor or sublimation pressure” value (258.15 K) was 261.4 ± 2.6 kPa and the “vapor or sublimation pressure” value (263.15 K) was 311.9 ± 3.2 kPa. For the same compound, the “vapor or sublimation pressure” value (265.65 K) was 342.3 ± 3.5 kPa, the “vapor or sublimation pressure” value (268.15 K) was 372.2 ± 3.8 kPa and the “vapor or sublimation pressure” value (270.65 K) was 405.3 ± 4.1 kPa. For the same compound, the “vapor or sublimation pressure” value (273.15 K) was 438.1 ± 4.4 kPa, the “vapor or sublimation pressure” value (275.15 K) was 468.9 ± 4.7 kPa and the “vapor or sublimation pressure” value (278.15 K) was 517.1 ± 5.2 kPa. The “vapor or sublimation pressure” value (281.15 K) was 567.1 ± 5.7 kPa, the “vapor or sublimation pressure” value (283.15 K) was 602.9 ± 6.1 kPa and the “vapor or sublimation pressure” value (285.65 K) was 650.2 ± 6.6 kPa. The “vapor or sublimation pressure” value (288.15 K) was 699 ± 7.1 kPa, the “vapor or sublimation pressure” value (290.65 K) was 752.4 ± 7.6 kPa and the “vapor or sublimation pressure” value (293.15 K) was 808.2 ± 8.2 kPa. For the same compound, the “vapor or sublimation pressure” value (295.65 K) was 866 ± 8.8 kPa, the “vapor or sublimation pressure” value (298.15 K) was 924.2 ± 9.3 kPa and the “vapor or sublimation pressure” value (300.65 K) was 990.3 ± 10 kPa. The “vapor or sublimation pressure” value (303.15 K) was 1051.4 ± 11 kPa, the “vapor or sublimation pressure” value (305.65 K) was 1121.5 ± 11 kPa and the “vapor or sublimation pressure” value (308.15 K) was 1192.8 ± 12 kPa. For the same compound, the “vapor or sublimation pressure” value (310.65 K) was 1269.5 ± 13 kPa, the “vapor or sublimation pressure” value (313.15 K) was 1348.6 ± 14 kPa and the “vapor or sublimation pressure” value (315.65 K) was 1428.6 ± 14 kPa. The “vapor or sublimation pressure” value (318.5 K) was 1516.5 ± 15 kPa, the “vapor or sublimation pressure” value (320.65 K) was 1607.1 ± 16 kPa and the “vapor or sublimation pressure” value (323.15 K) was 1703.9 ± 17 kPa.
In the case of `FCC(F)(F)F` [1,1,1,2-tetrafluoroethane], the “vapor or sublimation pressure” value (263.15 K) is reported as 202.6 ± 2.9 kPa, the “vapor or sublimation pressure” value (268.15 K) is reported as 245.5 ± 3.5 kPa and the “vapor or sublimation pressure” value (273.15 K) is reported as 294.12 ± 4.2 kPa. For the same compound, the “vapor or sublimation pressure” value (283.15 K) was 416.6 ± 5.9 kPa.
